# Assays:
# Plasmodium falciparum [1] = experiment: NOVARTIS: Inhibition of Plasmodium falciparum 3D7 (drug-susceptible) proliferation in erythrocyte-based infection assay; assay type: functional, organism-based; conditions: Plasmodium falciparum, 3D7
# [2] = NOVARTIS: Cytotoxicity against human hepatocellular carcinoma cell line (Huh7); assay type: toxicity, cell-based, Huh-7; conditions: Huh7 cells (hepatocellular carcinoma cell line)
# Plasmodium falciparum [3] = experiment: NOVARTIS: Inhibition of Plasmodium falciparum W2 (drug-resistant) proliferation in erythrocyte-based infection assay; assay type: functional, organism-based; conditions: Plasmodium falciparum, W2; read-out: EC50
Compound,EC50 (Plasmodium falciparum [1]) [µM],CC50 [2] [µM],EC50 (Plasmodium falciparum [3]) [µM]
CC(C)NC(=O)c1cc(NC(=O)c2cccs2)ccc1N1CCc2ccccc2C1,1.26,16.3,0.479
c1ccc(-c2cc(NCCCN3CCOCC3)nc(-c3ccccn3)n2)nc1,> 1.01,> 10,0.586
COc1ccc(CN(Cc2ccc(C(C)C)cc2)S(=O)(=O)c2ccc(S(=O)(=O)N3CCN(c4ccccc4F)CC3)cc2)cc1,> 12.5,> 100,1.21
c1ccc([Si]2(c3ccccc3)N[Si](c3ccccc3)(c3ccccc3)N[Si](c3ccccc3)(c3ccccc3)N2)cc1,0.521,> 10,0.299
O=C(c1ccc2nc(N3CCCCC3)sc2c1)N1CCN(Cc2ccc3c(c2)OCO3)CC1,0.407,> 100,0.298
Cc1cccc(C2Sc3ccccc3N=C3c4ccccc4C(=O)C32)c1 (stereo unspecified),0.3,24.4,0.14
CC1=C(C(=O)OC(C)C)C(c2ccccc2Cl)C2=C(CC(c3ccccc3)CC2=O)N1 (stereo unspecified),0.297,> 64.2,0.0384
Fc1ccc(-c2cn3c([n+]2-c2ccccc2)SCC3)cc1,1.09,> 100,0.713
O=C(Nc1cccc(C2=NCCN2)c1)c1ccc(C(=O)Nc2cccc(C3=NCCN3)c2)cc1,0.599,> 10,0.178
COC(=O)C1=C(C)NC2=C(C(=O)CC(c3ccc(OC)cc3)C2)C1c1ccc(F)cc1 (stereo unspecified),0.191,> 100,0.0547
NC(=O)NN=C1c2cc(S(=O)(=O)NCc3ccco3)ccc2-c2ccc(S(=O)(=O)NCc3ccco3)cc21,1.18,> 10,> 1.54
CCCN(CC(=O)Nc1cc(C(C)(C)C)nn1-c1cccc(C)c1)C(=O)c1cccc([N+](=O)[O-])c1,> 1.63,> 10,1.01
CCOC(=O)C1=C(C)NC2=C(C(=O)C(C(=O)OCC)C(c3ccc(OC)cc3)C2)C1c1ccc(OC)c(OC)c1 (stereo unspecified),0.275,> 76.6,0.177
CCOC(=O)C1=C(C)N=c2sc(=Cc3cc(Cl)ccc3O)c(=O)n2C1c1ccc2c(c1)OCO2 (stereo unspecified),4.93,> 100,1.31
COc1c2occc2c(OC)c2c(=O)cc(C(Cl)(Cl)Cl)oc12,0.646,> 100,0.255
COC(=O)[C@@H]1C[C@@H](NC(=O)c2ccc(OC)cc2)CN1CC(c1ccccc1)c1ccccc1,1.15,> 4.17,< 0.0257
CCCOC(=O)C1=C(C)NC2=C(C(=O)CC(c3ccc(OC)c(OC)c3)C2)C1c1ccccc1C (stereo unspecified),0.0127,> 100,0.00978
CCOc1ccc(-c2nc(NC(=O)CS(=O)(=O)c3ccccc3)sc2C)cc1,0.525,> 100,0.74
Cc1nn(-c2cc(N3CCOCC3)ccc2[N+](=O)[O-])c(=O)c2ccccc12,> 0.995,> 10,> 1.25
O=C(NCCc1ccccc1)c1cnc(NCCCn2ccnc2)nc1NCC1CCCCC1,0.0914,> 10,0.208
CCOC(=O)C1CCN(C(=O)c2cc(C(C)(C)C)nn2Cc2ccc(Cl)cc2Cl)CC1,0.34,> 100,0.576
O=c1c2ccccc2[nH]c2ccc(F)cc12,0.186,> 100,0.208
CCOC(=O)c1c(C)oc2c1c1c(c3ccccc32)OCN(C2CCCC2)C1,11.1,> 100,2.96

Compound,EC50 (Plasmodium falciparum [1]) [µM],CC50 [2] [µM],EC50 (Plasmodium falciparum [3]) [µM]
CCCc1cc(-c2onc(C)c2-c2ccc(C(=O)OCC)o2)c(O)cc1OC,0.413,18.5,0.346
Cc1nc(N2CCN(c3ccccn3)CC2)c2c(C)c(C(=O)Nc3c(F)cccc3F)sc2n1,3.14,> 100,0.694
Cc1cccc(C)c1-n1c(SCc2cccc(F)c2)nc2c(sc(=S)n2-c2c(C)cccc2C)c1=O,5.16,> 100,0.728
CCOC(=O)c1oc2cc(O)c(CC)cc2c(=O)c1-c1ccc2c(c1)OCO2,> 0.834,> 10,> 1.25
COc1ccc(-c2csc3ncn(N)c(=O)c23)cc1,> 1.25,> 10,> 1.01
O=C(CSc1nc2ccccc2c(=O)n1C1CC1)Nc1cc(C(F)(F)F)ccc1Cl,0.719,> 100,8.11
CCNC(=O)C=Cc1ccc(C(C)(C)C)cc1,0.616,> 100,0.719
CCc1cc2c(Sc3nnc(N)s3)ncnc2s1,0.546,> 10,0.54
CCOc1cc(Br)cc(C=C2NC(=S)NC2=O)c1O,> 3.68,> 100,0.554
CN(C)c1ccc(C=C2SC(=N)N(c3nccs3)C2=O)cc1,5.05,> 100,1.83
O=c1c(=O)n(Cc2cccc(C(F)(F)F)c2)ccn1CCc1ccccc1,> 0.673,> 10,> 1.25
COc1cc(OC)c(N(C)C(=O)c2cn(C3CCCC3)c(=O)c3c2c2ccccc2n3C)cc1Cl,0.0977,47.2,0.0553
CCC(c1nc2ccccc2c(=O)n1-c1cccc(Cl)c1)N(CCC(C)C)C(=O)COCc1ccccc1 (stereo unspecified),1.19,3.91,> 1.14
CCc1ccc(NC(=O)COC(=O)c2cccs2)cc1,4.64,> 100,1.11
Fc1ccc(Nc2nc(NCc3ccco3)c3ccccc3n2)cc1,0.191,12.3,0.101
O=[N+]([O-])c1ccc2nc(NC3CCCCC3)c(NC3CCCCC3)nc2c1,2.49,14.7,2.65
CSc1nccc(-c2cc(F)cc3c2OC(CNC(=O)C2CC(=O)c4ccccc42)C3)n1 (stereo unspecified),1.8,> 10,> 0.969
O=C(Nc1ccc(C2=NCCN2)cc1)c1cccc2c(C(=O)Nc3ccc(C4=NCCN4)cc3)cccc12,0.0839,> 10,0.397
Cc1c2ccccc2c(-c2ccccc2)c2ccccc12,1.23,6,0.626
Oc1ccc(-c2ccnc3cc(Cl)ccc23)cc1CNCC1(O)CCCCC1,1.02,> 13.7,< 0.0238
CCOC(=O)c1c(N)n(-c2ccc(CC)cc2)c2nc3ccccc3nc12,0.797,> 100,0.823
CC1=C(CC(=O)c2cccc([N+](=O)[O-])c2)C(=O)c2ccccc2C1=O,2.84,4.69,1.72
CCCCN(CC)S(=O)(=O)c1cc(Br)cc2c1N(C(C)=O)CC2,1.56,> 10,0.441

Compound,EC50 (Plasmodium falciparum [1]) [µM],CC50 [2] [µM],EC50 (Plasmodium falciparum [3]) [µM]
OCc1nc2ccccc2n1Cc1ccccc1F,> 1.64,> 10,1.45
CC1(C)C2C[C@@H](COC(=O)NC(=O)c3ccccc3)[C@]3(C)[C@H](C21)C3(Cl)Cl (stereo partly specified),1.14,> 11.2,0.951
CC(=NNC(=S)N(C)C)c1ccccn1,0.311,> 10,0.338
CCCCCCN(C(=O)Nc1ccccc1OC)C(C)c1nc2ccccc2c(=O)n1-c1ccccc1OCC (stereo unspecified),0.852,> 10,0.753
COc1cc(OC)cc(C(=O)N2CCN(c3ccccn3)CC2)c1,> 1.25,> 10,> 1.13
CCOP1(=O)COc2ccccc2OC1,> 1.15,> 10,> 1.38
COc1ccc(CN2CCC(C(=O)Nc3ccc(Oc4cccnc4)cc3)CC2)cc1,2.23,59.4,0.64
CC1=C(CO)C(=O)O[C@@H]([C@@H](C)[C@H]2CC[C@H]3[C@@H]4C[C@H]5O[C@]56[C@@H](O)C=CC(=O)[C@]6(C)C4CC[C@]23C)C1 (stereo partly specified),4.97,3.63,1.68
OCCNCCNCc1ccc2[nH]c3ccccc3c2c1,0.291,28.9,7.6
CC(C)CN1CCN(c2nc(C#N)c3c(c2C(=S)NC2CCCCC2)CC(C)(C)OC3)CC1,0.37,> 10,0.319
NCCCC[C@H]1C(=O)Nc2ccc(O)cc2C(=O)N1C(C(=O)NCC(=O)O)c1cccnc1 (stereo partly specified),0.115,> 12.1,< 0.0063
COc1cc(NC2=CC(=O)C(=O)c3ccccc32)c(OC)cc1Cl,0.293,11.2,0.687
FC(F)(F)c1cccc(-c2cncc(N3CCN(c4ccccn4)CC3)n2)c1,5.77,45.7,1.91
CCOC(=O)c1c(C)n(Cc2ccccc2)c2c1cc(O)c1c2c(-c2ccccc2)nn1-c1ccccc1,1.06,> 100,0.345
COC(=O)CNC(=O)c1sc2ncn(CC(=O)Nc3ccccc3OC)c(=O)c2c1C,> 0.948,> 10,> 0.739
COc1ccc(C2C(C(=O)OC3CCCC3)=C(C)NC3=C2C(=O)CC(C)(C)C3)cc1Br (stereo unspecified),7,> 100,1.55
O=C(CCCCCN1C(=O)c2cccc3cccc(c23)C1=O)NO,0.563,3.32,0.164
CCCCCc1nnc(NC(=O)c2ccc(-c3ccc(OC)cc3)cc2)s1,0.457,> 10,0.0267
Cc1cccn2c(NCc3ccccc3)c(-c3ccccc3OC(=O)C(C)Cl)nc12 (stereo unspecified),0.764,> 100,0.925
CCC(C)OC(=O)C1=C(C)NC2=C(C(=O)CC(c3ccc(Cl)cc3)C2)C1c1ccc(Cl)cc1 (stereo unspecified),0.216,> 100,0.0438
O=C(c1ccccc1F)N1CCN(Cc2ccccc2C(F)(F)F)CC1,0.511,> 100,2.47

# Reference: ChEMBL document CHEMBL1156829 (Proc Natl Acad Sci U S A, 2008)
